According to publication PMC9569420 (Communications Biology, 2022):

Tests used:
CDK9/cyclin T1 = target: T1, CDK9/cyclin T1 (Homo sapiens, UniProt P50750); assay: HotSpot kinase assay; format: biochemical; settings: read-out: % Enzyme Activity (relative to DMSO controls)
T1 construct: purchased Reaction Biology Corporation

MAPKAPK3 = target: T2, MAPKAPK3 (Homo sapiens, UniProt Q16644); assay: HotSpot kinase assay; format: biochemical; settings: read-out: % Enzyme Activity (relative to DMSO controls)
T2 construct: purchased Reaction Biology Corporation

CK1d = target: T3, CK1d (Homo sapiens, UniProt P48730); assay: HotSpot kinase assay; format: biochemical; settings: read-out: % Enzyme Activity (relative to DMSO controls)
T3 construct: purchased Reaction Biology Corporation

PBK/TOPK = target: T4, PBK/TOPK (Homo sapiens, UniProt Q96KB5); assay: HotSpot kinase assay; format: biochemical; settings: read-out: % Enzyme Activity (relative to DMSO controls)
T4 construct: purchased Reaction Biology Corporation
T4 sequence (Q96KB5 whole entry): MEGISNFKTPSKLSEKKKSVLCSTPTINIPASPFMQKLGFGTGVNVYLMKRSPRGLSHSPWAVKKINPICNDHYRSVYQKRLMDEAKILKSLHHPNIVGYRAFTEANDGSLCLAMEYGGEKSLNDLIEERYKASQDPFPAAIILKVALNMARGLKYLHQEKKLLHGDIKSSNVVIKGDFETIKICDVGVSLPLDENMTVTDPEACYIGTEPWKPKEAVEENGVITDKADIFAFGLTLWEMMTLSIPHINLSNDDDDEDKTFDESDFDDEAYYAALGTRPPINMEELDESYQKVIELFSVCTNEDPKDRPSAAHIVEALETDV

MEKK1 = target: T5, MEKK1 (Homo sapiens, UniProt Q13233); assay: HotSpot kinase assay; format: biochemical; settings: read-out: % Enzyme Activity (relative to DMSO controls)
T5 construct: purchased Reaction Biology Corporation

CAMK2d = target: T6, CAMK2d (Homo sapiens, UniProt Q13557); assay: HotSpot kinase assay; format: biochemical; settings: read-out: % Enzyme Activity (relative to DMSO controls)
T6 construct: purchased Reaction Biology Corporation

c-Src = target: T7, c-Src (Homo sapiens, UniProt P12931); assay: biochemical
T7 construct: purchased Reaction Biology Corporation
T7 sequence (P12931 whole entry): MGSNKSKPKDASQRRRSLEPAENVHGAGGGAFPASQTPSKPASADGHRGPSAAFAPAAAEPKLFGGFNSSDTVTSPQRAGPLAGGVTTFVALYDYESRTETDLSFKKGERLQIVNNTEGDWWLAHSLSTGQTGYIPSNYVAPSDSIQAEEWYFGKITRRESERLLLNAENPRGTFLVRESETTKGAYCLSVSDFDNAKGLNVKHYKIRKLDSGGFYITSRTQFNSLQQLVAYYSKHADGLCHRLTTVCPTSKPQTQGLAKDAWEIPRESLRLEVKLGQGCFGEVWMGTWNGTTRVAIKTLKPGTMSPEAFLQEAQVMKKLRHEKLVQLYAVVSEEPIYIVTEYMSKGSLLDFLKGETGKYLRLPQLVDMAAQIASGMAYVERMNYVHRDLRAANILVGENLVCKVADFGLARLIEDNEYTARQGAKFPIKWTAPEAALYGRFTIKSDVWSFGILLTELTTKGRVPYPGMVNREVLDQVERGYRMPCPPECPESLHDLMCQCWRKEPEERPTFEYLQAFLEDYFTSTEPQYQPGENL

PLK3 = target: T8, PLK3 (Homo sapiens, UniProt Q9H4B4); assay: HotSpot kinase assay; format: biochemical; settings: read-out: % Enzyme Activity (relative to DMSO controls)
T8 construct: purchased Reaction Biology Corporation
T8 sequence (Q9H4B4 whole entry): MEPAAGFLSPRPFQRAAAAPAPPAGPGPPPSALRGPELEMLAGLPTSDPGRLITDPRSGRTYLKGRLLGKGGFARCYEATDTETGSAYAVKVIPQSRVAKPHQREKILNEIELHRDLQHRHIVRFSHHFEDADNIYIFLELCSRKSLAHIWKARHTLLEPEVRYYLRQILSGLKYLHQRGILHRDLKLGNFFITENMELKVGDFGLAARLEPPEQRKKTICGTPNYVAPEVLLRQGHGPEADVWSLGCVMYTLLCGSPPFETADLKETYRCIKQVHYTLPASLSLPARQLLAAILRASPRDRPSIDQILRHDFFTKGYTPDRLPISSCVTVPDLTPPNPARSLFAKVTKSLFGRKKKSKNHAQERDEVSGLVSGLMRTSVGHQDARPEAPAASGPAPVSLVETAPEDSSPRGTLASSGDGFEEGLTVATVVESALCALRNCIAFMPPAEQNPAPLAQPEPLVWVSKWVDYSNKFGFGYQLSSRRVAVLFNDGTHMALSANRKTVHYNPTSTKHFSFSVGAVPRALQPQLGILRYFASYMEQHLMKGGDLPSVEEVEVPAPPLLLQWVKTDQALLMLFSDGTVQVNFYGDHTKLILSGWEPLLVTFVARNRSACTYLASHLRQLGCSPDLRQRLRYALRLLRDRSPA

PYK2 = target: T9, PYK2 (Homo sapiens, UniProt Q14289); assay: HotSpot kinase assay; format: biochemical; settings: read-out: % Enzyme Activity (relative to DMSO controls)
T9 construct: purchased Reaction Biology Corporation

FLT4/VEGFR3 = target: T10, FLT4/VEGFR3 (Homo sapiens, UniProt P35916); assay: HotSpot kinase assay; format: biochemical; settings: read-out: % Enzyme Activity (relative to DMSO controls)
T10 construct: purchased Reaction Biology Corporation

EPHB4 = target: T11, EPHB4 (Homo sapiens, UniProt P54760); assay: HotSpot kinase assay; format: biochemical; settings: read-out: % Enzyme Activity (relative to DMSO controls)
T11 construct: purchased Reaction Biology Corporation

EPHB3 = target: T12, EPHB3 (Homo sapiens, UniProt P54753); assay: HotSpot kinase assay; format: biochemical; settings: read-out: % Enzyme Activity (relative to DMSO controls)
T12 construct: purchased Reaction Biology Corporation

CTK/MATK = target: T13, CTK/MATK (Homo sapiens, UniProt P42679); assay: HotSpot kinase assay; format: biochemical; settings: read-out: % Enzyme Activity (relative to DMSO controls)
T13 construct: purchased Reaction Biology Corporation

DRAK1/STK17A = target: T14, DRAK1/STK17A (Homo sapiens, UniProt Q9UEE5); assay: HotSpot kinase assay; format: biochemical; settings: read-out: % Enzyme Activity (relative to DMSO controls)
T14 construct: purchased Reaction Biology Corporation

CLK4 = target: T15, CLK4 (Homo sapiens, UniProt Q9HAZ1); assay: HotSpot kinase assay; format: biochemical; settings: read-out: % Enzyme Activity (relative to DMSO controls)
T15 construct: purchased Reaction Biology Corporation

EPHB1 = target: T16, EPHB1 (Homo sapiens, UniProt P54762); assay: HotSpot kinase assay; format: biochemical; settings: read-out: % Enzyme Activity (relative to DMSO controls)
T16 construct: purchased Reaction Biology Corporation

MEK1 = target: T17, MEK1 (Homo sapiens, UniProt Q02750); assay: HotSpot kinase assay; format: biochemical; settings: read-out: % Enzyme Activity (relative to DMSO controls)
T17 construct: purchased Reaction Biology Corporation

DMPK = target: T18, DMPK (Homo sapiens, UniProt Q09013); assay: HotSpot kinase assay; format: biochemical; settings: read-out: % Enzyme Activity (relative to DMSO controls)
T18 construct: purchased Reaction Biology Corporation

CLK1 = target: T19, CLK1 (Homo sapiens, UniProt P49759); assay: HotSpot kinase assay; format: biochemical; settings: read-out: % Enzyme Activity (relative to DMSO controls)
T19 construct: purchased Reaction Biology Corporation

ASK1/MAP3K5 = target: T20, ASK1/MAP3K5 (Homo sapiens, UniProt Q99683); assay: HotSpot kinase assay; format: biochemical; settings: read-out: % Enzyme Activity (relative to DMSO controls)
T20 construct: purchased Reaction Biology Corporation

VSV-S = format: cell-based, VSV pseudotyped with SARS-CoV-2 spike
CDK2/CYCLIN E = target: T21, CDK2/CYCLIN E (Homo sapiens, UniProt P24941); assay: HotSpot kinase assay; format: biochemical; settings: read-out: % Enzyme Activity (relative to DMSO controls)
T21 construct: purchased Reaction Biology Corporation

CAMKK1 = target: T22, CAMKK1 (Homo sapiens, UniProt Q8N5S9); assay: biochemical; settings: read-out: % Enzyme Activity (relative to DMSO controls)
T22 construct: purchased Reaction Biology Corporation

EPHA4 = target: T23, EPHA4 (Homo sapiens, UniProt P54764); assay: HotSpot kinase assay; format: biochemical; settings: read-out: % Enzyme Activity (relative to DMSO controls)
T23 construct: purchased Reaction Biology Corporation

[1] = system: Akt (pAkt T308) in HaCat cells; assay: Akt phosphorylation in response to insulin (confocal); format: cell-based, human; settings: insulin 10 μM, CIMSS 10 or 100 µM
RIPK5 = target: T24, RIPK5 (Homo sapiens, UniProt Q6XUX3); assay: HotSpot kinase assay; format: biochemical; settings: read-out: % Enzyme Activity (relative to DMSO controls)
T24 construct: purchased Reaction Biology Corporation

LKB1 = target: T25, LKB1 (Homo sapiens, UniProt Q15831); assay: HotSpot kinase assay; format: biochemical; settings: read-out: % Enzyme Activity (relative to DMSO controls)
T25 construct: purchased Reaction Biology Corporation
T25 sequence (Q15831 whole entry): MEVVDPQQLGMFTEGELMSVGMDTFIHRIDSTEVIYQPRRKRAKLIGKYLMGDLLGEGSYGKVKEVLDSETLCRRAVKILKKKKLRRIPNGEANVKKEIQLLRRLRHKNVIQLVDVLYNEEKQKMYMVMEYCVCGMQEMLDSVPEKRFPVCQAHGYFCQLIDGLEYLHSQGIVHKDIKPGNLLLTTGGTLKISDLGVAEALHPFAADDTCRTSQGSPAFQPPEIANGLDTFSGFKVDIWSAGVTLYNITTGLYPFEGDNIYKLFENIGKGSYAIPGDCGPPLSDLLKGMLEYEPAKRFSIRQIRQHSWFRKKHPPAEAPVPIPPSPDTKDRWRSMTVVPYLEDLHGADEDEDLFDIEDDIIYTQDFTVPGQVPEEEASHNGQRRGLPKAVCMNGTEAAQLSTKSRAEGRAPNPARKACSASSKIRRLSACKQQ
T25 sequence (Q7RTN6 whole entry partner): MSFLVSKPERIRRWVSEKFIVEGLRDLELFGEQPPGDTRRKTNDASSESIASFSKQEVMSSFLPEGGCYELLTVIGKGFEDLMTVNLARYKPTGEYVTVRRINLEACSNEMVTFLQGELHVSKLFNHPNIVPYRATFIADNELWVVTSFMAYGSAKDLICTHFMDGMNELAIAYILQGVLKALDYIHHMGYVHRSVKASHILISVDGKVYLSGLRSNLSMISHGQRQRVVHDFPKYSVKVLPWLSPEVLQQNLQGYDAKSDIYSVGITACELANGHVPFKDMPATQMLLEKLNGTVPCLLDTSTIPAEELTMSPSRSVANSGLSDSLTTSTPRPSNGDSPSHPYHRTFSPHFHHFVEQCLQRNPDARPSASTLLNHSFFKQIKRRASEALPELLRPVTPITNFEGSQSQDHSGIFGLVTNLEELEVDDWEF
T25 sequence (Q9Y376 whole entry partner): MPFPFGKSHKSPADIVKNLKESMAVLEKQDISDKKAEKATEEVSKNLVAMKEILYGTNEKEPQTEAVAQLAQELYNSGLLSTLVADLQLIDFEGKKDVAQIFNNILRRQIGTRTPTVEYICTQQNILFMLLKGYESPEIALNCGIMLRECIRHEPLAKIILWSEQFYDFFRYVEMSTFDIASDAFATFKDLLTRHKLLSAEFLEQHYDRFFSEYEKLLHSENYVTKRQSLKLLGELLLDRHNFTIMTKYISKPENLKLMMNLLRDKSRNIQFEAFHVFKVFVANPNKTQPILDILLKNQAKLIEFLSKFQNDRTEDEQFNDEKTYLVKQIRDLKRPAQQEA

CK1g2 = target: T26, CK1g2 (Homo sapiens, UniProt P78368); assay: HotSpot kinase assay; format: biochemical; settings: read-out: % Enzyme Activity (relative to DMSO controls)
T26 construct: purchased Reaction Biology Corporation
T26 sequence (P78368 whole entry): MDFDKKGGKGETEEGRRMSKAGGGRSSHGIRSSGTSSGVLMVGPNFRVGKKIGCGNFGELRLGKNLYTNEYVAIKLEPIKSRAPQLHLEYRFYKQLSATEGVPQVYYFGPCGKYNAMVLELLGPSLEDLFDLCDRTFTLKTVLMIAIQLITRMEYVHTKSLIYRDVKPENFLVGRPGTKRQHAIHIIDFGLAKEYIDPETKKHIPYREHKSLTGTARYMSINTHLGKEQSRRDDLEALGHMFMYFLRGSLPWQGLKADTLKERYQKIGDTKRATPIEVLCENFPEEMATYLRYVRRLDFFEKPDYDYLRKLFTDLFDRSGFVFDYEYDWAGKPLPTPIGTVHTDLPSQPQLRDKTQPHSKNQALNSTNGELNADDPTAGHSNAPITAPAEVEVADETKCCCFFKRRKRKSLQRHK

TYK2 = target: T27, TYK2 (Homo sapiens, UniProt P29597); assay: HotSpot kinase assay; format: biochemical; settings: read-out: % Enzyme Activity (relative to DMSO controls)
T27 construct: purchased Reaction Biology Corporation

[2] = Parallel artificial membrane permeability assay (PAMPA); format: in vitro ADME
LRRK2 = target: T28, LRRK2 (Homo sapiens, UniProt Q5S007); assay: HotSpot kinase assay; format: biochemical; settings: read-out: % Enzyme Activity (relative to DMSO controls)
T28 construct: purchased Reaction Biology Corporation

FYN = target: T29, FYN (Homo sapiens, UniProt P06241); assay: HotSpot kinase assay; format: biochemical; settings: read-out: % Enzyme Activity (relative to DMSO controls)
T29 construct: purchased Reaction Biology Corporation

STK21/CIT = target: T30, STK21/CIT (Homo sapiens, UniProt O14578); assay: HotSpot kinase assay; format: biochemical; settings: read-out: % Enzyme Activity (relative to DMSO controls)
T30 construct: purchased Reaction Biology Corporation

BLK = target: T31, BLK (Homo sapiens, UniProt P51451); assay: HotSpot kinase assay; format: biochemical; settings: read-out: % Enzyme Activity (relative to DMSO controls)
T31 construct: purchased Reaction Biology Corporation
T31 sequence (P51451 whole entry): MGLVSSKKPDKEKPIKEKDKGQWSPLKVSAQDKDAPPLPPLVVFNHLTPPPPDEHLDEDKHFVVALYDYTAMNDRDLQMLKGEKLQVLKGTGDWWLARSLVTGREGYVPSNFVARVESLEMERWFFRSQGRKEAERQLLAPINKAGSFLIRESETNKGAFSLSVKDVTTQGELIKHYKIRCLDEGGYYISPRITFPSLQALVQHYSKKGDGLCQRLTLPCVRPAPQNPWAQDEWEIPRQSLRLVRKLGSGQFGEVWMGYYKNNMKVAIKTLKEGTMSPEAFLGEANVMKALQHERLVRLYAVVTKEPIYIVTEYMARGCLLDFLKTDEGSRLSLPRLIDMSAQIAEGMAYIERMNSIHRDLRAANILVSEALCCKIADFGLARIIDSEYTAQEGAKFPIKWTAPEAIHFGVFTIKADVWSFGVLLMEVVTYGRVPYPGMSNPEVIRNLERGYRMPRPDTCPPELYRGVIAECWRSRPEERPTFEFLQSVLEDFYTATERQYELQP

ROCK1 = target: T32, ROCK1 (Homo sapiens, UniProt Q13464); assay: HotSpot kinase assay; format: biochemical; settings: read-out: % Enzyme Activity (relative to DMSO controls)
T32 construct: purchased Reaction Biology Corporation
T32 sequence (Q13464 whole entry): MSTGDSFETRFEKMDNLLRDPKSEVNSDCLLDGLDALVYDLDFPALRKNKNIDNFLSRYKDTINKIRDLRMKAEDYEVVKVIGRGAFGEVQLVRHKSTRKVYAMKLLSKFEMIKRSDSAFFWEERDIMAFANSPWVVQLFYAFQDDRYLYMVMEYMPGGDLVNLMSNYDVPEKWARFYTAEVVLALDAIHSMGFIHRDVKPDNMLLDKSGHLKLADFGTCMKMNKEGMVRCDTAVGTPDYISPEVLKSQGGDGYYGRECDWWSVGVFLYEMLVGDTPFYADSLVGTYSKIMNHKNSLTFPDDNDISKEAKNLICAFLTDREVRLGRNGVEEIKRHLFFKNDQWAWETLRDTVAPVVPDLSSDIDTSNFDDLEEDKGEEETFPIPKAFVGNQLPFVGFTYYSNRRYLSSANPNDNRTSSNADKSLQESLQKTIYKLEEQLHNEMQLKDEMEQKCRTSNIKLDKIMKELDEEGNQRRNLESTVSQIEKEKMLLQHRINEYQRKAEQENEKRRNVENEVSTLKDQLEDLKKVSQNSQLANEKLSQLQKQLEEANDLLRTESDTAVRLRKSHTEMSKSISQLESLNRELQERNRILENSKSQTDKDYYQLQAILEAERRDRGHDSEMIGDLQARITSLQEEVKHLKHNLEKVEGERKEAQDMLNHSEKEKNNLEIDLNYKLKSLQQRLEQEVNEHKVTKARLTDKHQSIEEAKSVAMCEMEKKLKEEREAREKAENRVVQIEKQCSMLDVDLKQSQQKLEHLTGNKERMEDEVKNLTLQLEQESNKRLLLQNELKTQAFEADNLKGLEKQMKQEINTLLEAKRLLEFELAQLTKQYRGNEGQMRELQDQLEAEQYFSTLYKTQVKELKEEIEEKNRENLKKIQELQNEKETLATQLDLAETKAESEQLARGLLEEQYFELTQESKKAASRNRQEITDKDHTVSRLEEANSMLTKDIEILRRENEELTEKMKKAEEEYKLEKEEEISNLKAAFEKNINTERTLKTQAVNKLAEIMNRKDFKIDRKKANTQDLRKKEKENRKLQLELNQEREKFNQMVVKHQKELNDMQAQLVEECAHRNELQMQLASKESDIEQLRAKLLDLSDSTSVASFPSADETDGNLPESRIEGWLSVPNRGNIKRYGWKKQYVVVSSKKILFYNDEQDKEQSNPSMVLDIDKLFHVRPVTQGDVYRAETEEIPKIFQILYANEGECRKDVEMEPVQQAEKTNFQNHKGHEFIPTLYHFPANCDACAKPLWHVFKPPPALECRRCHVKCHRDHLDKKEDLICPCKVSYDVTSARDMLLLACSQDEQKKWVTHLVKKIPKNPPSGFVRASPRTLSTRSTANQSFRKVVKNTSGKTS

BMX/ETK = target: T33, BMX/ETK (Homo sapiens, UniProt P51813); assay: HotSpot kinase assay; format: biochemical; settings: read-out: % Enzyme Activity (relative to DMSO controls)
T33 construct: purchased Reaction Biology Corporation

HIPK2 = target: T34, HIPK2 (Homo sapiens, UniProt Q9H2X6); assay: HotSpot kinase assay; format: biochemical; settings: read-out: % Enzyme Activity (relative to DMSO controls)
T34 construct: purchased Reaction Biology Corporation

STK32C/YANK3 = target: T35, STK32C/YANK3 (Homo sapiens, UniProt Q86UX6); assay: HotSpot kinase assay; format: biochemical; settings: read-out: % Enzyme Activity (relative to DMSO controls)
T35 construct: purchased Reaction Biology Corporation

NEK4 = target: T36, NEK4 (Homo sapiens, UniProt P51957); assay: HotSpot kinase assay; format: biochemical; settings: read-out: % Enzyme Activity (relative to DMSO controls)
T36 construct: purchased Reaction Biology Corporation

With `CO[C@@H]1[C@H](N(C)C(=O)CCC(=O)NCc2cn(CCCS(=O)(=O)O)nn2)C[C@H]2O[C@]1(C)n1c3ccccc3c3c4c(c5c6ccccc6n2c5c31)C(=O)NC4` [CIMSS] as the molecule, how does the remaining activity at 10 µM (CDK9/cyclin T1) read?
Its remaining activity at 10 µM is 13.1%.

What about the remaining activity at 10 µM (MAPKAPK3) of the same molecule?
The remaining activity at 10 µM was 87.5%.

What about the remaining activity at 10 µM (CK1d) of the same molecule?
Its remaining activity at 10 µM is 106%.

And the remaining activity at 10 µM (PBK/TOPK)?
The remaining activity at 10 µM was 69.8%.

What about the remaining activity at 10 µM (MEKK1) of the same molecule?
The remaining activity at 10 µM was 67%.

And the remaining activity at 10 µM (CAMK2d)?
The remaining activity at 10 µM was 1.33%.

What about the IC50 (c-Src; Supplementary Table 1, read-out: IC50 (Molar concentration)) of the same molecule?
The IC50 was 11.9 nM.

What about the remaining activity at 10 µM (c-Src; read-out: % Enzyme Activity (relative to DMSO controls), 10µM) of the same molecule?
The remaining activity at 10 µM was 2.95%.

What about the remaining activity at 10 µM (PLK3) of the same molecule?
The remaining activity at 10 µM was 98.2%.

And the remaining activity at 10 µM (PYK2)?
Its remaining activity at 10 µM is 2.4%.

What about the remaining activity at 10 µM (FLT4/VEGFR3) of the same molecule?
Its remaining activity at 10 µM is 1.97%.

What about the remaining activity at 10 µM (EPHB4) of the same molecule?
The remaining activity at 10 µM was 19.4%.

What about the remaining activity at 10 µM (EPHB3) of the same molecule?
The remaining activity at 10 µM was 28.9%.

And the remaining activity at 10 µM (CTK/MATK)?
The remaining activity at 10 µM was 24.6%.

What about the remaining activity at 10 µM (DRAK1/STK17A) of the same molecule?
The remaining activity at 10 µM was 18.2%.

What about the remaining activity at 10 µM (CLK4) of the same molecule?
The remaining activity at 10 µM was 10.4%.

What about the remaining activity at 10 µM (EPHB1) of the same molecule?
Its remaining activity at 10 µM is 1.91%.

And the remaining activity at 10 µM (MEK1)?
Its remaining activity at 10 µM is 76.7%.

And the remaining activity at 10 µM (DMPK)?
The remaining activity at 10 µM was 76.5%.

And the remaining activity at 10 µM (CLK1)?
The remaining activity at 10 µM was 4.05%.

And the remaining activity at 10 µM (ASK1/MAP3K5)?
Its remaining activity at 10 µM is 6.25%.

And the VSV-S infection (VSV-S)?
Its VSV-S infection is “inhibited”.

What about the remaining activity at 10 µM (CDK2/CYCLIN E) of the same molecule?
Its remaining activity at 10 µM is 7.89%.

What about the remaining activity at 10 µM (CAMKK1) of the same molecule?
The remaining activity at 10 µM was 1%.

And the remaining activity at 10 µM (EPHA4)?
The remaining activity at 10 µM was 30.5%.

What about the “block of Akt phosphorylation in response to insulin” value [1] of the same molecule?
Its value is “did not block”.

And the remaining activity at 10 µM (RIPK5)?
Its remaining activity at 10 µM is 22.7%.

And the remaining activity at 10 µM (LKB1)?
Its remaining activity at 10 µM is 38%.

What about the remaining activity at 10 µM (CK1g2) of the same molecule?
The remaining activity at 10 µM was 98.5%.

And the remaining activity at 10 µM (TYK2)?
The remaining activity at 10 µM was 6.35%.

What about the Recover % ([2]; 100 µM) of the same molecule?
Its Recover % is 83%.

And the Papp at 5 h, 100 μM ([2]; PAMPA, PBS pH 7.4, 5 h)?
Its Papp at 5 h, 100 μM is 0.005 ×10⁻⁶ cm/s.

And the remaining activity at 10 µM (LRRK2)?
The remaining activity at 10 µM was 1.69%.

And the remaining activity at 10 µM (FYN)?
The remaining activity at 10 µM was 2.59%.

And the remaining activity at 10 µM (STK21/CIT)?
Its remaining activity at 10 µM is 81.7%.

What about the remaining activity at 10 µM (BLK) of the same molecule?
Its remaining activity at 10 µM is 0.34%.

And the remaining activity at 10 µM (ROCK1)?
Its remaining activity at 10 µM is 26.2%.

And the remaining activity at 10 µM (BMX/ETK)?
Its remaining activity at 10 µM is 2.19%.

What about the remaining activity at 10 µM (HIPK2) of the same molecule?
Its remaining activity at 10 µM is 17.5%.

What about the remaining activity at 10 µM (STK32C/YANK3) of the same molecule?
Its remaining activity at 10 µM is 20.5%.

And the remaining activity at 10 µM (NEK4)?
Its remaining activity at 10 µM is 6.24%.
